Assay results reported in ChEMBL document CHEMBL1201862, “PubChem BioAssay data set” (2004).
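Briefly, cells in 96-well plates were exposed to five compound concentrations for 48 h, and endpoints were estimated by linear interpolation. GI50 is the concentration that inhibits growth by half.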 Activity calls are given as the source filed them. No stated cut-off is given here; in the data, active = GI50 up to about 1.1 µM and inactive = higher.

Tests used:
Test in all cases: growth of human tumour cells (NCI), 48 h
OVCAR-3 = system: OVCAR-3
HCC 2998 = system: HCC 2998
UO-31 = system: UO-31
IGROV-1 = system: IGROV-1
RPMI-8226 = system: RPMI-8226
SF-295 = system: SF-295
SNB-19 = system: SNB-19
U-251 = system: U-251
SNB-78 = system: SNB-78
HCT-116 = system: HCT-116
SF-268 = system: SF-268
NCI-H460 = system: NCI-H460
EKVX = system: EKVX
HOP-62 = system: HOP-62
CCRF-CEM = system: CCRF-CEM
CAKI-1 = system: CAKI-1
OVCAR-4 = system: OVCAR-4
HT-29 = system: HT-29
Hs-578T = system: Hs-578T
MDA-MB-435 = system: MDA-MB-435

Measured: GI50

COc1cc2c(cc1OC)C(=O)N1CCCC1C(=O)S2 (stereo not drawn)
inactive: OVCAR-3 > 100 µM | HCC 2998 > 100 µM | UO-31 > 100 µM | IGROV-1 19.9 µM | RPMI-8226 > 100 µM | SF-295 > 100 µM | SNB-19 > 100 µM | U-251 > 100 µM | SNB-78 > 100 µM | HCT-116 > 100 µM | SF-268 > 100 µM | NCI-H460 > 100 µM | EKVX > 100 µM | HOP-62 > 100 µM | CCRF-CEM > 100 µM

COc1ccc([C@H]2CC(=O)NCCCCN2)cc1
inactive: CAKI-1 > 100 µM | UO-31 > 100 µM | IGROV-1 > 100 µM | OVCAR-4 > 100 µM | RPMI-8226 > 100 µM | SF-295 > 100 µM | SNB-19 > 100 µM | U-251 > 100 µM | HT-29 > 100 µM | SNB-78 > 100 µM | HCT-116 > 100 µM | SF-268 > 100 µM | NCI-H460 > 100 µM | EKVX > 100 µM | HOP-62 > 100 µM | CCRF-CEM > 100 µM

O=C1CCC(=O)c2c1c(O)c1ccncc1c2O
inactive: OVCAR-3 2.88 µM | CAKI-1 23.9 µM | HCC 2998 15.4 µM | UO-31 15.5 µM | IGROV-1 15 µM | OVCAR-4 12.9 µM | RPMI-8226 17.5 µM | SF-295 18 µM | SNB-19 26 µM | U-251 23.9 µM | HT-29 6.62 µM | SNB-78 23.7 µM | HCT-116 14.7 µM | NCI-H460 15.1 µM | EKVX 27.8 µM | HOP-62 30.9 µM | CCRF-CEM 14.8 µM

CCN(CC)CCn1c2ccccc2c(=O)c2c(OC)ccc(OC)c21
inactive: OVCAR-3 > 100 µM | CAKI-1 68.5 µM | UO-31 43.9 µM | IGROV-1 > 10 µM | OVCAR-4 > 100 µM | RPMI-8226 92.3 µM | SF-295 61.2 µM | SNB-19 > 100 µM | U-251 65.6 µM | HT-29 46.9 µM | SNB-78 40.6 µM | HCT-116 37.9 µM | SF-268 55.8 µM | NCI-H460 41.9 µM | EKVX > 100 µM | HOP-62 > 100 µM | CCRF-CEM 46.6 µM

O=C1OC(=O)c2c1c(-c1ccccc1)cn2-c1ccc(Cl)cc1
inactive: OVCAR-3 54.7 µM | HCC 2998 > 100 µM | UO-31 > 100 µM | IGROV-1 24.7 µM | RPMI-8226 26.8 µM | SF-295 > 100 µM | SNB-19 > 100 µM | U-251 87.3 µM | HT-29 > 100 µM | SNB-78 > 100 µM | HCT-116 > 100 µM | SF-268 > 100 µM | NCI-H460 > 100 µM | EKVX 41.1 µM | HOP-62 14.6 µM | CCRF-CEM 35.6 µM

N/N=C(\Cc1ccccc1)NN=C(N)N
inactive: CAKI-1 > 100 µM | HCC 2998 > 100 µM | UO-31 > 100 µM | IGROV-1 > 100 µM | OVCAR-4 > 100 µM | RPMI-8226 > 100 µM | SF-295 > 100 µM | U-251 > 100 µM | HT-29 > 100 µM | SNB-78 > 100 µM | HCT-116 > 100 µM | SF-268 > 100 µM | NCI-H460 > 100 µM | EKVX > 100 µM | CCRF-CEM 26.5 µM

COc1nc(NC2OC(COC(C)=O)C(OC(C)=O)C(OC(C)=O)C2OC(C)=O)c(-c2csc(N)n2)c(=O)n1C (stereo not drawn)
inactive: OVCAR-3 93.3 µM | CAKI-1 32.3 µM | UO-31 52.8 µM | IGROV-1 > 100 µM | OVCAR-4 19.4 µM | RPMI-8226 > 100 µM | SF-295 68.4 µM | SNB-19 > 100 µM | U-251 61.5 µM | HT-29 > 100 µM | SNB-78 62.2 µM | HCT-116 43.8 µM | SF-268 25.9 µM | NCI-H460 73.1 µM | HOP-62 29.6 µM | CCRF-CEM > 100 µM

N#C/C(=C\c1ccc2ccccc2c1)c1ccccc1
inactive: OVCAR-3 13 µM | CAKI-1 17.8 µM | HCC 2998 21.7 µM | UO-31 25.5 µM | IGROV-1 14.9 µM | OVCAR-4 29.6 µM | RPMI-8226 53.1 µM | SF-295 20.2 µM | U-251 23 µM | HT-29 26.7 µM | SNB-78 28.1 µM | HCT-116 30.3 µM | SF-268 39.6 µM | NCI-H460 17.1 µM | HOP-62 26.6 µM | CCRF-CEM 32.5 µM

O=C(N/C(=C\c1ccc(Oc2ccc(Cl)c(Cl)c2)cc1)c1nc2ccccc2[nH]1)c1ccccc1
inactive: OVCAR-3 17.3 µM | CAKI-1 21 µM | HCC 2998 16.4 µM | UO-31 14.1 µM | IGROV-1 > 10 µM | OVCAR-4 16.6 µM | SF-295 15.1 µM | SNB-19 15.6 µM | U-251 14.1 µM | HT-29 15.5 µM | SNB-78 20.4 µM | SF-268 18.1 µM | EKVX 22 µM | CCRF-CEM 17.1 µM

CN(C(=O)C12C3C4C1C1C2C3C41C(N)=O)C(C)(C)C (stereo not drawn)
inactive: OVCAR-3 > 100 µM | CAKI-1 > 100 µM | HCC 2998 > 100 µM | UO-31 > 100 µM | IGROV-1 > 100 µM | OVCAR-4 > 100 µM | SF-295 > 100 µM | SNB-19 > 100 µM | HT-29 > 100 µM | SNB-78 > 100 µM | HCT-116 > 100 µM | SF-268 > 100 µM | NCI-H460 > 100 µM | EKVX > 100 µM | CCRF-CEM > 100 µM

CCCCCCCCCCCCn1[nH]c(C)c(C(=S)SCCCCCCCC)c1=O
inactive: OVCAR-3 34.8 µM | CAKI-1 32.1 µM | HCC 2998 > 96.6 µM | UO-31 60.3 µM | IGROV-1 > 91.6 µM | OVCAR-4 95.5 µM | SF-295 > 63 µM | SNB-19 > 82.8 µM | U-251 45 µM | HT-29 76.2 µM | SNB-78 > 100 µM | HCT-116 29.6 µM | SF-268 > 72.6 µM | NCI-H460 61.4 µM | EKVX 43.9 µM | HOP-62 50.1 µM | CCRF-CEM 28.1 µM

O=c1cc(O)c2ccccc2o1 [4-HYDROXYCOUMARINS]
inactive: OVCAR-3 > 100 µM | CAKI-1 > 100 µM | HCC 2998 > 100 µM | UO-31 > 100 µM | Hs-578T > 100 µM | IGROV-1 > 100 µM | OVCAR-4 > 100 µM | RPMI-8226 > 100 µM | MDA-MB-435 > 100 µM | SF-295 > 100 µM | SNB-19 > 100 µM | U-251 > 100 µM | HT-29 > 100 µM | HCT-116 > 100 µM | SF-268 > 100 µM | NCI-H460 > 100 µM | EKVX > 100 µM | HOP-62 > 100 µM | CCRF-CEM > 100 µM
